Consider 2 compounds from patent publication US20200038412A1, “METHODS OF TREATING ALZHEIMER'S DISEASE USING AMINOSTEROL COMPOSITIONS” (Enterin, Inc., priority 2018, published 2020).

Data set [1] concerns patients with PD and constipation. Nature of the data set: Phase 2 trial Stage 2: bowel function under daily oral dosing (escalation, fixed dose, wash-out). The following applies: patients with baseline ≥1 CSBM/week. Format: in vivo, human. The protocol:
Following successful screening, all subjects underwent a 14-day run-in period where the degree of constipation was assessed through a validated daily log (Zinsmeister et al. 2013) establishing baseline CSBMs/week. Subjects with an average of <3 CSBMs/week proceeded to dosing.
In Stage 2, 34 patients were evaluated.
The primary efficacy outcome variable was whether or not a subject was a “success” or “failure”. This is an endpoint based on subject diary entries for the “fixed dose” period prior to the endpoint assessment defined as average complete stool frequency increase by 1 or more over baseline, or 3 or more complete spontaneous stools/week. The subject was deemed a “success” if s/he met one or more of the criteria listed above, otherwise the subject was deemed a “failure”. The primary analysis was based on all subjects with a baseline assessment and an assessment at the end of the “fixed-dose” period and was a comparison of the proportion of successes with 0.10 (the null hypothesis corresponding to no treatment effect).

Data set [2] can be described thus: Pharmacokinetics of orally administered squalamine (ENT-01) in Stage 1. In kind it is in vivo, human. The following applies: oral dosing. The protocol:
PK data were collected on the 10 patients enrolled in Stage 1 and 10 patients enrolled in Stage 2 to determine the extent of systemic absorption. In Stage 1, PK data were obtained at each visit, pre-medication, at 1, 2, 4, 8 and 24 hours (Table 10). In Stage 2, PK was measured on days 1 and 6 of the randomization period pre-medication, at 1, 2, 4 and 8 hours (Table 11).
The mean Cmax, Tmax and T1/2 and AUC of the squalamine ion following squalamine (ENT-01) oral dosing for Stage 1 patients. The PK analyses are only approximate, as the lower limit of the validated concentration range was 10 ng/ml; most of the measured concentrations fell below that value. The mean Cmax, Tmax and T1/2 and AUC of the squalamine ion following squalamine (ENT-01) oral dosing for Stage 2 patients. The PK analyses are only approximate, as the lower limit of the validated concentration range was 0.5 ng/ml.

The subject of a further data set is mouse models of PD. The following applies: cited from earlier work.
The test system of data set [3] is IPANs (intrinsic primary afferent neuron). Particulars: perfusion through lumen of isolated bowel segment; cited from earlier work.
In the next data set the test system is C. elegans model of PD. Particulars: C. elegans model; cited from earlier work.
For data set [4] the following is noted: systemic administration, mice; into the duodenum through the biliary tract; cited from earlier work.
For data set [5] the following is noted: single and repeat intravenous administration, alone or in combination with other agents; cited from earlier work.

SMILES strings stand for the structures. Where a name gives a salt, the structure may show the parent alone.

On to `CC(C)[C@@H](CC[C@@H](C)[C@H]1CC[C@H]2[C@@H]3[C@H](O)C[C@H]4C[C@@H](NCCCNCCCCN)CC[C@]4(C)[C@H]3CC[C@]12C)OS(=O)(=O)O` [squalamine], for which, in data set [1], the “mean dose required for a bowel response (prokinetic dose)” value worked out at 120 mg. Moreover, the systemic absorption result in data set [2] is reported as “not significantly absorbed into the systemic circulation”. In addition, the gastro-intestinal motility result in the data set with mouse models of PD (orally administered, mice with constipation due to overexpression of human αS (West et al)) was “stimulates gastro-intestinal motility”. Besides, the gastrointestinal dysmotility entry in the data set on mouse models of PD (several mouse models of PD) is on record as “reverse gastrointestinal dysmotility”. Besides, in data set [3], the “effect on IPANs” value is reported as “excitation of IPANs”. Also, the muscle paralysis result in the data set on C. elegans model of PD is given as “complete reversal of muscle paralysis”. Further, in data set [4], the clearance and excretion entry was “cleared by the liver and excreted as the intact molecule”.
Take `CC(C)[C@@H](CC[C@@H](C)[C@H]1CC[C@H]2[C@@H]3[C@H](O)C[C@H]4C[C@@H](NCCCNCCCCN)CC[C@]4(C)[C@H]3CC[C@]12C)OS(=O)(=O)O` [squalamine dilactate salt]: the “well tolerated intravenous dose” value in data set [5] is “at least 300 mg/m^2”.
